Results as given in article PMC12519060, “The anabolic steroid stanozolol is a potent inhibitor of human MutT homolog 1” (Febs Letters, 2025).

Legend:
[1] = molecular target: T1, hMTH1 (human MutT homolog 1) (Homo sapiens, UniProt P36639); set-up: gene NUDT1; details: substrate dGTP 100 μM, 6 nM hMTH1, 10 mM Mg acetate, 1% DMSO, 22 °C, active site (crystal structure, metal free) buffer, no inhibition seen, bound not given
[2] = molecular target: T1, hMTH1 (human MutT homolog 1); assay: modified Malachite Green assay with inorganic pyrophosphatase; assay type: biochemical; set-up: gene NUDT1; E. coli-optimised cDNA in pET28a(+), expressed in E. coli BL21(DE3); His-tag removed with thrombin; monomer

| Structure (SMILES) | no inhibition [1] | IC50 [2] |
| --- | --- | --- |
| C[C@]12CCC(=O)C[C@@H]1CC[C@@H]1[C@@H]2CC[C@]2(C)[C@@H](O)CC[C@@H]12 [Dihydrotestosterone] | while DHT did not show any inhibition of hMTH1 (Fig. S1) | – |
| C[C@]12Cc3c[nH]nc3C[C@@H]1CC[C@@H]1[C@@H]2CC[C@@]2(C)[C@H]1CC[C@]2(C)O [stanozolol] | – | 26 nM |
